Tests used:
MOLM13 = assay: Resazurin cell viability assay, MOLM13 leukaemia cell line (72 h); type: cell-based; details: Homo sapiens, MOLM-13, MOLM13, 72 h, read-out: 72 h Antiproliferative activity, GI50 (μmol/L) ± SD
Description: (§1) Compounds from Example 1 were subjected to a standard MTT (3-(4,5-dimethylthiazol-2-yl)-2,5-diphenyltetrazolium bromide) and resazurin assays on solid tumour cell lines and leukemia cell lines, respectively, as previously reported (Wang S et al., J Med Chem 47:1662-1675, 2004 and Diab S. et al. CheMedChem 9:962-972, 2014). Compound concentrations required to inhibit 50% of cell growth (GI50) were calculated using non-linear regression analysis.

leukemia cell lines = assay: Resazurin cell viability assay on leukemia cell lines (72 h growth inhibition, GI50); type: cell-based; details: Homo sapiens, MV4-11 cells
Procedure, shortened: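 Solid tumour cells: MTT. Leukaemia cells: resazurin. GI50 fitted by non-linear regression.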

CDKs and other kinases [1] = biological target: T1, CDKs and other kinases (Homo sapiens, UniProt P24941); assay: Radiometric kinase assay (Eurofins Pharma Discovery or Reaction Biology Corporation Kinase Profiler); type: biochemical; details: CDK2A; for Ki: read-out: CDK inhibition, Ki (μM) CDK2A; for remaining activity at 10 µM: compound at 10 μM, read-out: residual activity (%) at 10 μM CDK2A
T1 construct: other: CDK2A; residual activity (%) at 10 μM CDK2A; compound at 10 μM
Procedure, shortened: (§2)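 Other CDKs and further kinases were profiled externally by radiometric assay. In-house ADP Glo assays covered CDK4/D1 and CDK6/D3 (RB-CTF substrate, pH 7.5 Tris buffer with MgCl2, DTT, BSA) and CDK9/T1 (RBER-IRStide substrate), 40 min at 37° C.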

CDKs and other kinases [2] = biological target: T2, CDKs and other kinases (Homo sapiens, UniProt P06493); assay: as above; type: biochemical; details: CDK1B; for Ki: read-out: CDK inhibition, Ki (μM) CDK1B; for remaining activity at 10 µM: compound at 10 μM, read-out: residual activity (%) at 10 μM CDK1B
T2 construct: other: CDK1B; residual activity (%) at 10 μM CDK1B; compound at 10 μM
T2 sequence (P06493 whole entry): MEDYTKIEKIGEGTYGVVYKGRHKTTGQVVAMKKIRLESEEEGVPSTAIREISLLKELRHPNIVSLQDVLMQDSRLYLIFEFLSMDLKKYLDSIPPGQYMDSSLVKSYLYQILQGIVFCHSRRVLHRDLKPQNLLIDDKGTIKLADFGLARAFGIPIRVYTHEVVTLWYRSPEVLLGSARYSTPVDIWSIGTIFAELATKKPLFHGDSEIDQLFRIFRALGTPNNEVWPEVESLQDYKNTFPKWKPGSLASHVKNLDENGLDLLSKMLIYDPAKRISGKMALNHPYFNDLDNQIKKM
Procedure, shortened: as §2

CDKs and other kinases [3] = biological target: T3, CDKs and other kinases (Homo sapiens, UniProt P50613); assay: as above; type: biochemical; details: CDK7H; for Ki: read-out: CDK inhibition, Ki (μM) CDK7H; for remaining activity at 10 µM: compound at 10 μM, read-out: residual activity (%) at 10 μM CDK7H
T3 construct: other: CDK7H; residual activity (%) at 10 μM CDK7H; compound at 10 μM
T3 sequence (P50613 whole entry): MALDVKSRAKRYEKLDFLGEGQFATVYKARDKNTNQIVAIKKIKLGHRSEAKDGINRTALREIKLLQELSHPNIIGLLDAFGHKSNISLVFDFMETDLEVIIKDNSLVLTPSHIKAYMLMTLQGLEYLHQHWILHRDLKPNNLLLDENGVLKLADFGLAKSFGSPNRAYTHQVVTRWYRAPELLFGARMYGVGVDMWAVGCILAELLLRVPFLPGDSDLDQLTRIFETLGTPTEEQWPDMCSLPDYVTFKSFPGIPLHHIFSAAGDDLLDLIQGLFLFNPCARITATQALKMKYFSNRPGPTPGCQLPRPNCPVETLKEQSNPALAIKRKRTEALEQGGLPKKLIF
Procedure, shortened: as §2

NB4 = assay: Resazurin cell viability assay, NB4 leukaemia cell line (72 h); type: cell-based; details: Homo sapiens, NB-4, NB4, 72 h, read-out: 72 h Antiproliferative activity, GI50 (μmol/L) ± SD
Description: as §1

CDK6/D3 = CDK6/D3 (Homo sapiens, UniProt Q00534); assay: ADP Glo Kinase assay CDK6/D3; type: biochemical; details: CDK6D3; for Ki: read-out: CDK inhibition, Ki (μM) CDK6D3; for remaining activity at 10 µM: compound at 10 μM, read-out: residual activity (%) at 10 μM CDK6D3
Chain of CDK6/D3 (Q00534 whole entry): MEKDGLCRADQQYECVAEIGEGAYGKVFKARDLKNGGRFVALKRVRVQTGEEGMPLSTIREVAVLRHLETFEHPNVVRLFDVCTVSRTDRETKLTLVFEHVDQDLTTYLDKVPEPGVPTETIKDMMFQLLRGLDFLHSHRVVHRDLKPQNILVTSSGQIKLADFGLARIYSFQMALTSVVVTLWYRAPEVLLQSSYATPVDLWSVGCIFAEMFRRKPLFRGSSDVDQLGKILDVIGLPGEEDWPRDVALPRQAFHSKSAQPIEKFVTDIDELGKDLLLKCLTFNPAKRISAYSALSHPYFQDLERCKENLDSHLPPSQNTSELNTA
Chain of CDK6/D3 (P30281 whole entry partner): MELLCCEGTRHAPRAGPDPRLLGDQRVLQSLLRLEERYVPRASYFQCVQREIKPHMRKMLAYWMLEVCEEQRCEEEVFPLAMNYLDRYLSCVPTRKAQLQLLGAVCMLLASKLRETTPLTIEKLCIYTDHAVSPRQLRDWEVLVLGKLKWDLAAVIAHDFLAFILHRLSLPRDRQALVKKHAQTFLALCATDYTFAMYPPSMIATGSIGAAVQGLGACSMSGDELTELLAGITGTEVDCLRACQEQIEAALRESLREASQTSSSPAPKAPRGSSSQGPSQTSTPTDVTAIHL
Procedure, shortened: (§3)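 CDK4/D1 and CDK6/D3 were run in […] Tris pH 7.5, 20 mM MgCl2, 0.4 mM DTT, 0.1 mg/ml BSA with RB-CTF substrate; CDK9/T1 used RBER-IRStide. ATP-started reactions ran 40 min at 37° C, with ADP Glo luminescence read-out. IC50 came from 4-parameter fits; Ki from Km (ATP) and IC50.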

PC3 = assay: MTT cell viability assay, PC3 prostate cancer cell line (72 h); type: cell-based; details: Homo sapiens, PC-3, PC3, 72 h, read-out: 72 h Antiproliferative activity, GI50 (μmol/L) ± SD
Description: as §1

MCF-7 = assay: MTT cell viability assay, MCF-7 breast cancer cell line (72 h); type: cell-based; details: Homo sapiens, MCF7, MCF-7, 72 h, read-out: 72 h Antiproliferative activity, GI50 (μmol/L) ± SD
Description: as §1

MDA-MB-468 = assay: MTT cell viability assay, MDA-MB-468 breast cancer cell line (72 h); type: cell-based; details: Homo sapiens, MDA-MB-468, 72 h, read-out: 72 h Antiproliferative activity, GI50 (μmol/L) ± SD
Description: as §1

A2780 = assay: MTT cell viability assay, A2780 ovarian cancer cell line (72 h); type: cell-based; details: Homo sapiens, A2780, 72 h, read-out: 72 h Antiproliferative activity, GI50 (μmol/L) ± SD
Description: as §1

MDA-MB-231 = assay: MTT cell viability assay, MDA-MB-231 breast cancer cell line (72 h); type: cell-based; details: Homo sapiens, MDA-MB-231, 72 h, read-out: 72 h Antiproliferative activity, GI50 (μmol/L) ± SD
Description: as §1

T47D = assay: MTT cell viability assay, T47D breast cancer cell line (72 h); type: cell-based; details: Homo sapiens, read-out: 72 h Antiproliferative activity, GI50 (μmol/L) ± SD
Description: as §1

U937 = assay: Resazurin cell viability assay, U937 leukaemia cell line (72 h); type: cell-based; details: Homo sapiens, U-937, U937, 72 h, read-out: 72 h Antiproliferative activity, GI50 (μmol/L) ± SD
Description: as §1

MDA-MB-453 = assay: MTT cell viability assay, MDA-MB-453 breast cancer cell line (72 h); type: cell-based; details: Homo sapiens, MDA-MB-453, 72 h, read-out: 72 h Antiproliferative activity, GI50 (μmol/L) ± SD
Description: as §1

CDK9/T1 = CDK9/T1 (Homo sapiens, UniProt P50750); assay: ADP Glo Kinase assay CDK9/T1; type: biochemical; details: CDK9T1; read-out: CDK inhibition, Ki (μM) CDK9T1
Chain of CDK9/T1 (P50750 whole entry): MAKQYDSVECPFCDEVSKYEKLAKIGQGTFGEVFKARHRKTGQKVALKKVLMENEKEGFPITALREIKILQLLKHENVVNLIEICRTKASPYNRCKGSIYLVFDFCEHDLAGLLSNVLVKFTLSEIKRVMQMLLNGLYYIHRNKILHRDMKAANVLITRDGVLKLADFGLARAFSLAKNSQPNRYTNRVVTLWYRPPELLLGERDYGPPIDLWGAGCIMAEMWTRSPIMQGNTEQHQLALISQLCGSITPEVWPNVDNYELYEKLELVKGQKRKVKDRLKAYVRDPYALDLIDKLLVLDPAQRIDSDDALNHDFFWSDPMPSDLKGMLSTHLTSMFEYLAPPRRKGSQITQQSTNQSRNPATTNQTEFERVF
Chain of CDK9/T1 (O60563 whole entry partner): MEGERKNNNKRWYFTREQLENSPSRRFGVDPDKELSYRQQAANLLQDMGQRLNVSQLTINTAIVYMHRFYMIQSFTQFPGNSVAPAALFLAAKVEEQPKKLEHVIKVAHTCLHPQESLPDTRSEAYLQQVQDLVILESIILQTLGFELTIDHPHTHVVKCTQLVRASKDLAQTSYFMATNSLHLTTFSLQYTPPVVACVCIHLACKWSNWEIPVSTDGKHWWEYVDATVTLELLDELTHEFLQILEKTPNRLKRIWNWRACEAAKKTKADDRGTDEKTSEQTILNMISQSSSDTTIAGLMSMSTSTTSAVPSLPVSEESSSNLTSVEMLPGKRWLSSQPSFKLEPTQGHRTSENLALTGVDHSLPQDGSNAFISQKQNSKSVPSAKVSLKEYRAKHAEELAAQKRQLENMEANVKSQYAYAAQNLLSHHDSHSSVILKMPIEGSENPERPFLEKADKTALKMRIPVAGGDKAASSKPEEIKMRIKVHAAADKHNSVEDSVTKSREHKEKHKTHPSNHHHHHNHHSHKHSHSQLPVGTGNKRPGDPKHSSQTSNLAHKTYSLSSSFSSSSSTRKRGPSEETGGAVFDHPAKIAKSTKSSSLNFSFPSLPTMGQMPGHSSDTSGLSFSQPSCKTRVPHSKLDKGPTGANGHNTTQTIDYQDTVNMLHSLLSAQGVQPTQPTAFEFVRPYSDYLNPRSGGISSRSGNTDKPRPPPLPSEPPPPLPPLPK
Procedure, shortened: as §2

CDK4/D1 = CDK4/D1 (Homo sapiens, UniProt P11802); assay: ADP Glo Kinase assay CDK4/D1; type: biochemical; details: CDK4D1; for Ki: read-out: CDK inhibition, Ki (μM) CDK4D1; for remaining activity at 10 µM: compound at 10 μM, read-out: residual activity (%) at 10 μM CDK4D1
Chain of CDK4/D1 (P11802 whole entry): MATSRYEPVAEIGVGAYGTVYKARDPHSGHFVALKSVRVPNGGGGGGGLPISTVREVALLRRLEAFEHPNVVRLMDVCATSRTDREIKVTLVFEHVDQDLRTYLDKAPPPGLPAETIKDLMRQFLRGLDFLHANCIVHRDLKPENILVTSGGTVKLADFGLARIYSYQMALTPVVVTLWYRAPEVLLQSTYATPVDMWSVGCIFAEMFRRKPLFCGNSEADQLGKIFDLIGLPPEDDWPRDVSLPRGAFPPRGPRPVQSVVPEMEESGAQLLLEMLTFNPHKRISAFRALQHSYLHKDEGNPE
Chain of CDK4/D1 (P24385 whole entry partner): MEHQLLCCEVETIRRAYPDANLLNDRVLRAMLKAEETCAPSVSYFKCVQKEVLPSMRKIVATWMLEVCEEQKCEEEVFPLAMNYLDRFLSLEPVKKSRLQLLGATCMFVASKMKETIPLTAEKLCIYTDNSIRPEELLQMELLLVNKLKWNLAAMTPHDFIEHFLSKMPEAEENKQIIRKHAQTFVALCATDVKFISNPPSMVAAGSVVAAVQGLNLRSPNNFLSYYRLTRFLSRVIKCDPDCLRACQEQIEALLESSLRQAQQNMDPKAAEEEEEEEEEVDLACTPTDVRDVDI
Procedure, shortened: as §3

Row | Structure (SMILES) | GI50 (leukemia cell lines) | Ki (CDKs and other kinases [1]) | Ki (CDKs and other kinases [2]) | Ki (CDKs and other kinases [3]) | Ki (CDK9/T1) | remaining activity at 10 µM (CDK6/D3) | remaining activity at 10 µM (CDK4/D1) | also measured
1 | N[C@H]1CC[C@H](Nc2ncc(F)c(-c3cnc4ccc(NCc5ccc(F)cc5)cn34)n2)CC1 [Compound 7, (1r,4r)-N^1-(5-Fluoro-4-(6-((4-fluorobenzyl)amino)imidazo [1,2-a]pyridin-3-yl)pyrimidin-2-yl)cyclohexane-1,4-diamine] | 0.075 ± 0.011 µM | 0.24 µM | 0.42 µM | 0.73 µM | 0.006 µM |  |  | GI50 (MOLM13): 0.015 ± 0.006 µmol/L; GI50 (NB4): 0.16 ± 0.052 µmol/L; Ki (CDK6/D3): 1.71 µM; GI50 (PC3): 0.087 ± 0.04 µmol/L; GI50 (MCF-7): 0.218 ± 0.013 µmol/L; GI50 (MDA-MB-468): 0.08 ± 0.015 µmol/L; GI50 (A2780): 0.274 ± 0.03 µmol/L; GI50 (MDA-MB-231): 0.035 ± 0.008 µmol/L; GI50 (T47D): 0.616 ± 0.086 µmol/L; GI50 (U937): 0.156 ± 0.061 µmol/L; GI50 (MDA-MB-453): 0.931 ± 0.269 µmol/L; Ki (CDK4/D1): 0.691 µM
2 | Cc1cnc(N[C@H]2CC[C@H](N)CC2)nc1-c1cnc2ccc(-c3cccnc3)cn12 [Compound 29, (1r,4r)-N^1-(5-Methyl-4-(6-(pyridin-3-yl)imidazo[1,2-a]pyridin-3-yl)pyrimidin-2-yl)cyclohexane-1,4-diamine] | 0.101 ± 0.039 µM | 1.83 µM | 3.57 µM | 2.73 µM | 0.051 µM | 45% | 17% | 
3 | Cc1cnc(N[C@]23C[C@@]4(C)C[C@](C)(C[C@](O)(C4)C2)C3)nc1-c1cnc2ccc(Nc3cncnc3)cn12 [Compound 102, (1s,3R,5S,7r)-3,5-Dimethyl-7-((5-methyl-4-(6-(pyrimidin-5-ylamino)imidazo[1,2-a]pyridin-3-yl)pyrimidin-2-yl)amino)adamantan-1-ol] | 0.059 ± 0.019 µM |  |  |  | 0.109 µM | 100% | 73% | remaining activity at 10 µM (CDKs and other kinases [1]): 22%; remaining activity at 10 µM (CDKs and other kinases [2]): 36%; remaining activity at 10 µM (CDKs and other kinases [3]): 85%
4 | Cc1cnc(NC2CCC(N(C)C)CC2)nc1-c1cnc2ccc(Nc3cncnc3)cn12 (stereo not shown) [Compound 99, N^1,N^1-dimethyl-N^4-(5-Methyl-4-(6-(pyrimidin-5-ylamino)imidazo[1,2-a]pyridin-3-yl)pyrimidin-2-yl)cyclohexane-1,4-diamine] | 0.265 ± 0.034 µM | 0.48 µM | 1.66 µM | 3.1 µM | 0.006 µM |  |  | Ki (CDK6/D3): 0.51 µM; Ki (CDK4/D1): 1.16 µM
5 | Cc1cnc(N[C@H]2CC[C@H](N)CC2)nc1-c1cnc2ccc(NC(=O)c3ccc(F)cc3)cn12 [Compound 72, N-(3-(2-(((1r,4r)-4-Aminocyclohexyl)amino)-5-methylpyrimidin-4-yl)imidazo[1,2-a]pyridin-6-yl)-4-fluorobenzamide] | 1.46 ± 0.476 µM |  |  |  | 0.194 µM | 85% | 77% | remaining activity at 10 µM (CDKs and other kinases [1]): 52%; remaining activity at 10 µM (CDKs and other kinases [2]): 69%; remaining activity at 10 µM (CDKs and other kinases [3]): 57%
6 | Cc1cncc(Nc2ccc3ncc(-c4nc(N[C@H]5CC[C@H](N)CC5)ncc4C)n3c2)c1 [Compound 64, (1r,4r)-N^1-(5-Methyl-4-(6-((5-methylpyridin-3-yl)amino)imidazo[1,2-a]pyridin-3-yl)pyrimidin-2-yl)cyclohexane-1,4-diamine] | 0.155 ± 0.054 µM | 0.59 µM | 2.37 µM | 1.44 µM | 0.016 µM | 38% | 1% | 
7 | Cc1cnc(N[C@H]2CC[C@H](N)CC2)nc1-c1cnc2ccc(Nc3ccc(OC(F)F)nc3)cn12 [Compound 68, (1r,4r)-N^1-(4-(6-((6-(Difluoromethoxy)pyridin-3-yl)amino)imidazo[1,2-a]pyridin-3-yl)-5-methylpyrimidin-2-yl) cyclohexane-1,4-diamine] | 0.127 ± 0.002 µM | 0.35 µM | 2.18 µM | 0.71 µM | 0.033 µM | 23% | 37% | 
8 | Cc1cnc(NC2CCCC(N)C2)nc1-c1cnc2ccc(Nc3cccnc3)cn12 (stereo not shown) [Compound 95, N^1-(5-Methyl-4-(6-(pyridin-3-ylamino)imidazo[1,2-a]pyridin-3-yl)pyrimidin-2-yl)cyclohexane-1,3-diamine] | 0.646 ± 0.129 µM |  |  |  | 0.198 µM | 76% | 76% | remaining activity at 10 µM (CDKs and other kinases [1]): 28%; remaining activity at 10 µM (CDKs and other kinases [2]): 59%; remaining activity at 10 µM (CDKs and other kinases [3]): 33%
9 | N[C@H]1CC[C@H](Nc2ncc(Cl)c(-c3cnc4c(-c5ccccc5)cc(C(F)(F)F)cn34)n2)CC1 [Compound 85, (1r,4r)-N^1-(5-Chloro-4-(8-phenyl-6-(trifluoromethyl)imidazo[1,2-a]pyridin-3-yl)pyrimidin-2-yl)cyclohexane-1,4-diamine] | 1.32 ± 0.549 µM | 0.77 µM | 7.44 µM | 0.048 µM | 0.13 µM | 43% | 75% | 
10 | N[C@H]1CC[C@H](Nc2ncc(Cl)c(-c3cnc4ccccn34)n2)CC1 [Compound 42, (1r,4r)-N^1-(5-chloro-4-(imidazo[1,2-a]pyridin-3-yl)pyrimidin-2-yl)cyclohexane-1,4-diamine] | 0.007 ± 0.001 µM | 0.046 µM | 0.46 µM | 0.024 µM | 0.061 µM | 45% | 0% | 
11 | CS(=O)(=O)N[C@H]1CC[C@H](Nc2ncc(Cl)c(-c3cnc4ccc(Br)cn34)n2)CC1 [Compound 17, N-((1r,4r)-4-((4-(6-Bromoimidazo[1,2-a]pyridin-3-yl)-5-chloropyrimidin-2-yl)amino)cyclohexyl) methanesulfonamide] | < 0.001 µM | 0.0004 µM | 0.004 µM | 0.001 µM | 0.062 µM | 26% | 1% | 
12 | COC(=O)CN[C@H]1CC[C@H](Nc2ncc(F)c(-c3cnc4ccccn34)n2)CC1 [Compound 15, Methyl ((1r,4r)-4-((5-fluoro-4-(imidazo[1,2-a]pyridin-3-yl)pyrimidin-2-yl)amino)cyclohexyl)glycinate] | 0.05 ± 0.009 µM | 0.027 µM | 0.07 µM | 0.15 µM | 0.014 µM | 13% | 0% | 

From patent publication US11111245B2, “Derivatives of N-cycloalkyl/heterocycloalkyl-4-(imidazo[1,2-a]pyridine)pyrimidin-2-amine as therapeutic agents” (Aucentra Therapeutics Pty Ltd, priority 2017, dated 2021)
